Source: ChEMBL document CHEMBL1201862, “PubChem BioAssay data set” (2004)
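Following 48 hours of exposure in 96-well plates, responses at five concentrations were used to interpolate endpoints linearly. Abbreviation: GI50, concentration required for 50% inhibition of growth.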 Active and inactive are the calls of the source. Cut-off read from the data, not from the text of the source: active = GI50 up to about 1.1 µM and inactive = higher.

Tests used:
Assay in all cases: NCI tumour cell line growth inhibition, 48 h
[1] = tested on: SK-MEL-2
[2] = tested on: HCC 2998
[3] = tested on: EKVX
[4] = tested on: OVCAR-4
[5] = tested on: HOP-62
[6] = tested on: SN12C
[7] = tested on: A549
[8] = tested on: DMS-114
[9] = tested on: HT-29
[10] = tested on: DMS-273
[11] = tested on: M19-MEL
[12] = tested on: NCI-H23
[13] = tested on: UO-31
[14] = tested on: UACC-257
[15] = tested on: A498
[16] = tested on: OVCAR-5
[17] = tested on: KM-20L2
[18] = tested on: XF498
[19] = tested on: OVCAR-8
[20] = tested on: NCI-H460
[21] = tested on: SK-MEL-5
[22] = tested on: SNB-75
[23] = tested on: UACC-62
[24] = tested on: SF-268
[25] = tested on: U-251
[26] = tested on: SW-620
[27] = tested on: CCRF-CEM
[28] = tested on: HCT-15
[29] = tested on: RPMI-8226
[30] = tested on: NCI-H226
[31] = tested on: NCI/ADR-RES
[32] = tested on: Malme-3M
[33] = tested on: HCT-116
[34] = tested on: HOP-18
[35] = tested on: HOP-92
[36] = tested on: NCI-H522
[37] = tested on: SNB-19
[38] = tested on: OVCAR-3
[39] = tested on: SK-MEL-28
[40] = tested on: SK-OV-3
[41] = tested on: K562
[42] = tested on: SF-539
[43] = tested on: DLD-1
[44] = tested on: SNB-78
[45] = tested on: MCF7
[46] = tested on: LOX IMVI
[47] = tested on: HL-60
[48] = tested on: KM12
[49] = tested on: IGROV-1
[50] = tested on: CAKI-1
[51] = tested on: RXF 393
[52] = tested on: COLO 205
[53] = tested on: MOLT-4
[54] = tested on: SF-295
[55] = tested on: ACHN
[56] = tested on: DU-145
[57] = tested on: T47D
[58] = tested on: MDA-MB-231

Measured: GI50

C=C1C(=O)C[C@@]23CCC[C@@]12CC(OCOC)C3 (stereo partly drawn)
1.36 µM: [28]
active: [36] 0.387 µM | [51] 0.637 µM
inactive: [1] 4.16 µM | [2] 6.35 µM | [3] 6.46 µM | [4] 2.19 µM | [5] 12 µM | [6] 1.93 µM | [7] 13.5 µM | [8] 1.91 µM | [9] 1.99 µM | [10] 2.4 µM | [11] 3.59 µM | [12] 3.43 µM | [13] 5.46 µM | [14] 2.5 µM | [15] 4.69 µM | [16] 3.61 µM | [17] 2.83 µM | [18] 3.12 µM | [19] 3.09 µM | [20] 2.74 µM | [21] 3.33 µM | [22] 2.1 µM | [23] 2.61 µM | [24] 4.56 µM | [25] 8.47 µM | [26] 2.07 µM | [27] 1.62 µM | [29] 2.55 µM | [30] 2 µM | [31] 2.11 µM | [32] 2.84 µM | [33] 2.18 µM | [34] 3.6 µM | [35] 2.32 µM | [37] 14.6 µM | [38] 2.72 µM | [39] 2.69 µM | [40] 6.67 µM | [41] 3.12 µM | [42] 3.24 µM | [43] 1.84 µM | [44] 4.8 µM | [45] 1.83 µM | [46] 1.61 µM | [47] 2.05 µM | [48] 3.08 µM | [49] 1.85 µM | [50] 2.3 µM | [52] 3.8 µM | [53] 2.5 µM | [54] 5.3 µM

NC(=O)c1ncn2c1NC(=O)CC2
> 100 µM: [28]
inactive: [1] > 100 µM | [2] > 100 µM | [3] > 100 µM | [4] > 100 µM | [5] > 100 µM | [6] > 100 µM | [7] > 100 µM | [8] > 100 µM | [9] > 100 µM | [10] > 100 µM | [11] > 100 µM | [12] > 100 µM | [13] > 100 µM | [14] > 100 µM | [15] > 100 µM | [16] > 100 µM | [17] > 100 µM | [18] > 100 µM | [19] > 100 µM | [20] > 100 µM | [21] > 100 µM | [22] > 100 µM | [23] > 67.8 µM | [24] > 100 µM | [25] > 100 µM | [26] > 100 µM | [27] > 100 µM | [29] > 100 µM | [30] > 100 µM | [31] > 100 µM | [32] > 100 µM | [33] > 100 µM | [34] > 100 µM | [35] > 100 µM | [36] > 100 µM | [37] > 100 µM | [38] > 100 µM | [39] > 100 µM | [40] > 100 µM | [41] > 100 µM | [42] > 100 µM | [43] > 100 µM | [44] > 45.3 µM | [45] > 100 µM | [46] > 100 µM | [47] > 100 µM | [48] > 100 µM | [49] > 100 µM | [50] > 100 µM | [51] > 100 µM | [52] > 100 µM | [53] > 100 µM | [54] > 100 µM

NC(CN(O)N=O)C(=O)O (stereo not drawn)
inactive: [1] 95.9 µM | [55] 1.85 µM | [9] 9.23 µM | [56] 135 µM | [57] 157 µM | [11] 14.1 µM | [16] 5.22 µM | [17] 19 µM | [18] 5.71 µM | [19] 12.2 µM | [31] 17.1 µM | [32] 54.5 µM | [34] 331 µM | [42] 8.57 µM | [44] 21.8 µM | [58] 55.7 µM | [47] 9.4 µM | [53] 20.1 µM | [54] 5.01 µM
active: [7] 0.202 µM | [8] 0.309 µM | [10] 0.817 µM | [43] 1.04 µM | [46] 0.267 µM | [48] 0.472 µM
